Assays:
[1] = system: human Alzheimer's disease-derived and age-matched olfactory neuroepithelial cells; assay: oxidative stress-induced cell death of olfactory neuroepithelial cells; type: cell-based; conditions: via suppression of intracellular reactive oxygen species
Procedure: (§1) PAN-811 was originally developed for cancer therapy due to its ability to inhibit ribonucleotide reductase, a key enzyme required for DNA synthesis. […] PAN-811 was administered intracerebroventricularly (i.c.v.) at a dose of 50 μg per rat at 1 h after arterial occlusion. […] The effect of a single intravenous (i. v.) bolus injection of PAN-811 was also investigated. […] Mechanistically PAN-811 prevents glutamate-induced excitatory cytotoxicity, veratridine-induced sodium channel opening and related cell death, and staurosporine-induced apoptosis. […] In culture, ischemic condition results in a 19-fold increase in intracellular free calcium. PAN-811 at a dose of 5 μM reduced this elevated level by 72%. […] In addition, PAN-811 effectively suppresses oxidative stress in many ways. […] Importantly, PAN-811 manifested as a free radical scavenger in a cell free system where PAN-811 reduced 500 μM of a stable free radical diphenylpicrylhydrazyl by 70%. Taken together, PAN-811 has manifested as a potent neuroprotectant with dual drug targets—oxidative stress and free calcium.

cultured neuronal cells = type: cell-based
Procedure: as §1

[2] = system: ischemic neurodegeneration; conditions: 0.45 μM; cited from earlier work
ribonucleotide reductase = molecular target: T1, ribonucleotide reductase (Homo sapiens, UniProt P31350); conditions: cited from earlier work
T1 sequence (P31350 1-389): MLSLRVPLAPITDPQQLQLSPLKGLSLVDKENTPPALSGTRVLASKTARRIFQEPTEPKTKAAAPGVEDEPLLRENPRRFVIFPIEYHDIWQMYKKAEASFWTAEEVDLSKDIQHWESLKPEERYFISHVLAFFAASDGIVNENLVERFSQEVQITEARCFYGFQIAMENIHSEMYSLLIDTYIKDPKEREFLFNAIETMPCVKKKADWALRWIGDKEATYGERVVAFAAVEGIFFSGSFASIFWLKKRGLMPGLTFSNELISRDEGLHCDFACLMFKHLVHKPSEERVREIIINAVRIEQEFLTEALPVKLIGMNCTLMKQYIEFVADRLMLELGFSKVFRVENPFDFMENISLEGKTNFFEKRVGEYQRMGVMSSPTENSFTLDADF
T1 sequence (P23921 1-792 partner): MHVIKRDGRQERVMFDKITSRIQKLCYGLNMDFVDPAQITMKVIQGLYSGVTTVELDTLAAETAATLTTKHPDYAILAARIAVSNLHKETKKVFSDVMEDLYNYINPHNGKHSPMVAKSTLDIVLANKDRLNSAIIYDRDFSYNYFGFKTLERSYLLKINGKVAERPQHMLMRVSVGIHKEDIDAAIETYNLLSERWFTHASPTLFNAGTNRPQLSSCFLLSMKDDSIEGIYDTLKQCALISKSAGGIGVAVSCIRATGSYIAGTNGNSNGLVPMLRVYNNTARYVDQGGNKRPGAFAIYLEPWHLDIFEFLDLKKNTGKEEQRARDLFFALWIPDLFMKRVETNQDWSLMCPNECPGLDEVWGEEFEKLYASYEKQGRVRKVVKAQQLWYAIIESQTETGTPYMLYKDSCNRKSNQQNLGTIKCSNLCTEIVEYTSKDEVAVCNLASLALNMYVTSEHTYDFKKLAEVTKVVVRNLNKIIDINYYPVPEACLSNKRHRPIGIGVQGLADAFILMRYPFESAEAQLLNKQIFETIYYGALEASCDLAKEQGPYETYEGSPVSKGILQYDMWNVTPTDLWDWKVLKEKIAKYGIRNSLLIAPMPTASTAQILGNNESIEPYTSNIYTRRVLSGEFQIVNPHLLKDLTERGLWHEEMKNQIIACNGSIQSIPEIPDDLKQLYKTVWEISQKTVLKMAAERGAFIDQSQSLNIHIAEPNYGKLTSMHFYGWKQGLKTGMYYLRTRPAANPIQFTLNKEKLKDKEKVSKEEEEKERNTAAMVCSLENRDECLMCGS

[3] = system: staurosporine-induced apoptosis; assay: staurosporine-induced apoptosis; type: cell-based
Procedure: as §1

[4] = system: veratridine-induced sodium channel opening; assay: veratridine-induced sodium channel opening and related cell death; type: cell-based
Procedure: as §1

[5] = system: hypoxia-induced neuronal cell death; conditions: 1.2μM; cited from earlier work

NC(=S)N/N=C/c1ncccc1N [PAN-811, 3-aminopyridine-2-carboxaldehyde thiosemicarbazone]
inhibition of oxidative stress-induced cell death [1]: inhibited
prevention of glutamate-induced excitatory cytotoxicity (cultured neuronal cells): prevents
block of ischemic neurodegeneration [2]: fully blocked
inhibition of ribonucleotide reductase (ribonucleotide reductase): inhibit
prevention of staurosporine-induced apoptosis [3]: prevents
prevention of veratridine-induced sodium channel opening and related cell death [4]: prevents
halt of hypoxia-induced neuronal cell death [5]: completely halted

— patent US20150110853A1, “TREATMENT OF RADICAL PROSTATECTOMY-INDUCED ERECTILE DYSFUNCTION” (PANACEA PHARMACEUTICALS, priority 2013, published 2015)
